The text below walks through data of patent US11857544B2, “Composition or method including (t)ew-7197 for treating or preventing corneal endothelial diseases” (THE DOSHISHA, priority 2017, dated 2024).

One data set concerns iFECD. Nature of the data set: Cell survival rate (Cell Titer-Glo Luminescent Cell Viability Assay). In kind it is cell-based, human. How it is done:
were seeded on a 96-well plate at a ratio of 3×10^3 cells per well, and cultured until reaching confluence at 37° C. (5% CO2). DMEM+10% FBS+1% P/S was used as the medium. After 24 hours, the medium was removed. SB431542 (WAKO, 192-16541) and EW-7197 (Selleck Chemicals, 57530) were added so that the final concentration would each be 0.01, 0.1, 1, or 10 μM, and the medium was cultured for 48 hours. DMEM+2% FBS+1% P/S was used as the medium. After 24 hours, the cell morphology was observed under a phase contrast microscope. After observation, the cell survival rate was analyzed using Cell Titer-Glo Luminescent Cell Viability Assay by the following procedures. The medium was discarded so that the amount would be 50 μl per well, and Cell Titer-Glo Luminescent Cell Viability Assay solution (Promega, G7572) was added at 50 μl/well so that the ratio to the medium would be 1:1. The process was hereinafter conducted without exposure to light. The mixture was mixed thoroughly using a shaker for 2 minutes at about 120 min^-1, and incubated for 10 minutes. After the incubation, 80 μl was transferred to an Assay plate (Corning, 3912, Assay plate 96 well, white polystyrene), and absorbance was measured using a GloMax-Multi Detection System (Promega, E7051).
A general note: Cellular ATP, detected with luciferase, serves as a proxy for viable cell number.

A further data set relates to type I collagen. Nature of the data set: Area of type I collagen expression by immunostaining, Col8a2 knock-in mice (Example 5). In kind it is in vivo. To be noted: 0.02% eye drop, 8 weeks. How it is done: 5 μL of 0.02% (about 0.5 mM) EW-7197 eye drop or a base agent (7% DMSO containing PBS) was administered as an eye drop to both eyes of 4-month-old alpha 2 collagen 8 gene (Col8a2) knock-in mice 4 times a day for 8 weeks. The corneal endothelial cell density was measured using a specular microscope KS3M (Konan Medical, Inc.) at before eye drops, and 2, 4, 6, and 8 weeks after eye drops. Mice were euthanized by intraperitoneally administering an excessive amount (200 mg/kg body weight or greater) of anesthetic injection Somnopentyl (Kyoritsu Seiyaku Corporation) 8 weeks after injection. After confirming cardiac arrest, both eye balls were harvested. The harvested eye balls were incised to prepare a corneal fragment. Immunostaining of type I collagen and fibronectin was performed as follows. Image-Pro (Nippon Roper K.K.) was used to analyze the area of type I collagen and fibronectin expression.
After immobilizing a mouse corneal fragment for 10 minutes at room temperature in 4% paraformaldehyde, 0.5% TritonX-100 was added and allowed to permeate for 5 minutes. 1% bovine serum albumin (BSA) was added and the fragment was incubated for 1 hour at room temperature. The corneal fragment was then immersed in a primary antibody solution and reacted overnight at 4° C. […]

The test system of data set [1] is activated form of cleaved caspase 3. The experiment in a line: Western blot for cleaved caspase 3 in TGF-β-stimulated iFECD. In kind it is cell-based, human. Conditions: 0.1, 1, 10 μM. How it is done:
[…] were seeded on a 12-well plate at a ratio of 8×10^4 cells per well, and cultured at 37° C. (5% CO2) for 24 hours. DMEM+10% FBS+1% P/S was used as the medium. After 24 hours, the medium was removed. EW-7197 (Selleck Chemicals, 57530) was added so that the final concentration would be 0.1, 1, or 10 μM, and SB431542 (WAKO, 192-16541) was added so that the final concentration would be 10 μM, and the medium was cultured for 24 hours. DMEM+2% FBS+1% P/S was used as the medium. After 24 hours, the medium was removed and cultured […] so that the final concentration of 10 ng/ml of Transforming Growth Factor-132 Human recombinant (WAKO, 200-19911) and […] would be 0.1, 1, and 10 μM, and that of SB431542 would be 10 μM. DMEM+2% FBS+1% P/S was used as the medium. After 24 hours, the cell morphology and apoptosis were observed under a phase contrast microscope. To retrieve floating and dead cells, the medium was retrieved on ice, cells were washed twice with 1×PBS(-) and the solution thereof was also retrieved. The solution was centrifuged for 5 min at 4° C. and 800 g and the supernatant was discarded to obtain a precipitate. […] The detected band intensities were analyzed with Lumino Image Analyzer LAS-4000 mini (Fuji Film) and ImageQuantTM software (GE Healthcare).
Background: Immunoblotting shows a protein as a band on a membrane.

`Cc1cccc(-c2[nH]c(CNc3ccccc3F)nc2-c2ccc3ncnn3c2)n1` [EW-7197, N-((4-([1,2,4]triazolo[1,5-a]pyridin-6-yl)-5-(6-methylpyridin-2-yl)-1H-imidazol-2-yl)methyl)-2-fluoroaniline]: the “cell survival rate compared to a control group” value with iFECD (iFECD, all concentrations of 0.01, 0.1, 1, and 10 μM, 48 hours) was “a significant difference was not found”. The “toxicity to cells in a cell survival rate test” value in the data set on iFECD (summary statement) is “hardly found”. The “area of type I collagen expression compared to the base agent group” value with type I collagen was “decreasing trend”. Further, in data set [1], the “activated form of cleaved caspase 3 (about 17 kDa)” value is recorded as “suppressed to the same degree as the control group without stimulation with TGF-β or 10 μM of SB431542”.
